What all share (assay): In vitro MIC, agar dilution
Common to all, as to assay type: cell-based
(In general: Agar dilution tests growth on a series of plates holding different concentrations.)

The subject of one assay is E. faecium VanA(Van^R). The note with it: Enterococcus faecium, read-out: minimum inhibitory concentration (MIC). The protocol: (§1) The compounds of the invention were evaluated against several β-lactamresistant (for example methicillin-resistant, vancomycin resistant, and/or ampicillin-resistant) bacteria strains by determining the minimum inhibitory concentration (MIC, μg/ml) of each compound with respect to each strain. The MIC, the lowest concentration of antibiotic which inhibits growth of the test organism, was determined by the agar dilution method.
(§2) To determine the MIC for bacterial isolates, the test compound was incorporated in a series of two-fold dilutions into liquified Mueller-Hinton agar. Upon solidification, a number of different bacterial strains were spot inoculated with a replicating device onto the agar surface.
(§3) Aliquots of antimicrobial agents were prepared in phosphate buffered saline (PBS) at pH 7.2. Tween 20 or DMSO was used as a solubilizing vehicle as needed. Standard methods of vortexing, sonicating and gentle heat were used to facilitate solubilizing the test agent. […] A 1.28 mg/mL stock solution was used with a subsequent highest working concentration of 128 μg/mL. Serial two-fold dilutions were done through ≤0.25 μg/mL. Each drug level was tested in duplicate. Two-fold drug dilutions were done in sterile 50 mL tubes with a final drug volume of 5 mL. Upon the addition of 45 mL of molten agar, a 10-fold dilution resulted. Two, 25 mL. plates were then poured into 15×150 mm square Petri plates with grids and allowed to harden.
(§4) A control plate with a reference drug, either cefotaxime, vancomycin or imipenem, was used as the positive growth control. Stock concentrations of reference antibiotics were prepared and frozen at -80° C. […] All test plates were used within 24 hours of preparation.
(§5) Satisfactory results were obtained where the inoculum contained about 10^4 colony forming units (cfu)±0.5 logs. Starting with pure cultures of the test isolates on agar plates, a few isolated colonies were transferred to a tube of nutrient broth and allowed to grow 4-6 hours at 35-36° C. to reach log-phase growth. Dropwise addition of the broth culture to PBS was done to match a 0.5 McFarland turbidity standard equal to 10^8 cfu/mL. This was further diluted ten-fold in PBS to reach a working inoculum concentration of 10^7 cfu/mL. When 1 μL of the working inoculum was applied to the agar surface a concentration of about 10^4 cfu per spot was obtained.
(§6) Disposable sterile 1 μL loops were used to inoculate test plates, with each isolate in a designated grid on the agar plate. An alternate method of inoculation involved the use of a replica plater, a device with 48 steel pins allowing the simultaneous inoculation of multiple isolates. After the spots had dried, the plates were incubated at 35-36° C. for 16-20 hours. Endpoints were assessed as the minimum inhibitory concentration (MIC) of antimicrobial agent.

Assay [1] deals with S. aureus PC1(Meth^S)(lac^+). The note with it: Staphylococcus aureus, read-out: minimum inhibitory concentration (MIC). The protocol: as §1, §2, §3, §4, §5, §6
The subject of a further assay is E. faecium A491(Amp^R). The note with it: Enterococcus faecium, read-out: minimum inhibitory concentration (MIC). The protocol: as §1, §2, §3, §4, §5, §6
A further assay deals with E. faecalis VanB(Van^R). The note with it: Enterococcus faecalis, read-out: minimum inhibitory concentration (MIC). The protocol:
as §1, §2, §3, §4, §5, §6

The test system of the next assay is E. faecium ATCC 35667. The note with it: Enterococcus faecium, ATCC35667, read-out: minimum inhibitory concentration (MIC). The protocol: as §1, §2, §3, §4, §5, §6
The test system of assay [2] is S. aureus ATCC 13709(Meth^S). The note with it: Staphylococcus aureus, ATCC13709, S. aureus ATCC 13709(Meth^S); read-out: minimum inhibitory concentration (MIC). The protocol:
as §1, §2, §3, §4, §5, §6

The test system of another assay is S. aureus ATCC 29213. The note with it: Staphylococcus aureus, ATCC29213, read-out: minimum inhibitory concentration (MIC). The protocol: as §1, §2, §3, §4, §5, §6
Another assay concerns E. coli ATCC 25992. The note with it: Escherichia coli, ATCC25992, read-out: minimum inhibitory concentration (MIC). The protocol:
as §1, §2, §3, §4, §5, §6

The test system of assay [3] is S. aureus ATCC 33593(Meth^R). The note with it: Staphylococcus aureus, ATCC33593, read-out: minimum inhibitory concentration (MIC). The protocol: as §1, §2, §3, §4, §5, §6
The test system of the next assay is E. faecalis ATCC 29212. The note with it: Enterococcus faecalis, ATCC29212, read-out: minimum inhibitory concentration (MIC). The protocol: as §1, §2, §3, §4, §5, §6
For assay [4], the system named is S. haemolyticus 05(Meth^R). The note with it: Staphylococcus haemolyticus, read-out: minimum inhibitory concentration (MIC). The protocol:
as §1, §2, §3, §4, §5, §6

Assay [5] deals with S. aureus Spain #356(Meth^R). The note with it: Staphylococcus aureus, read-out: minimum inhibitory concentration (MIC). The protocol: as §1, §2, §3, §4, §5, §6
Assay [6] relates to S. aureus 76(Meth^R)(lac^+). The note with it: Staphylococcus aureus, read-out: minimum inhibitory concentration (MIC). The protocol: as §1, §2, §3, §4, §5, §6
In a further assay the test system is P. aeruginosa ATCC 27853. The note with it: Pseudomonas aeruginosa, ATCC27853, read-out: minimum inhibitory concentration (MIC). The protocol: as §1, §2, §3, §4, §5, §6
In assay [7] the test system is S. aureus Col(Meth^R)(lac^-). The note with it: Staphylococcus aureus, read-out: minimum inhibitory concentration (MIC). The protocol: as §1, §2, §3, §4, §5, §6
The S. aureus Col strain is a high-level PBP2a producer, whereas S. aureus Col 8A, its isogenic partner, lacks PBP2a.

Each structure is given as a SMILES string. Counter-ions that a name gives are not always drawn.

The record followed here is US6087355A, “Cephalosporin antibiotics” (Microcide Pharmaceuticals, Inc., priority 1996, dated 2000).

Consider `NCCSCc1cnccc1SC1=C(C(=O)O)N2C(=O)[C@@H](NC(=O)/C(=N\OC3CCCC3)c3csc(N)n3)[C@H]2SC1` [Cmpd 13, (7R)-7-[(Z)-2-(aminothiazol-4-yl)-2-(cyclopentyloxyimino)acetamido]-3-(3-aminoethylthiomethylpyrid-4-ylthio)-3-cephem-4-carboxylate, trifluoroacetic acid salt], for which the MIC in the assay on E. faecium VanA(Van^R) is 8 µg/mL; in assay [1] it was 2 µg/mL; in the assay on E. faecium A491(Amp^R), greater than 32 µg/mL; in the assay on E. faecalis VanB(Van^R), 2 µg/mL; in the assay on E. faecium ATCC 35667, 4 µg/mL; in [2], 2 µg/mL. The MIC in the assay on S. aureus ATCC 29213 was determined as 2 µg/mL; with E. coli ATCC 25992 it was 8 µg/mL; in [3], 8 µg/mL; with E. faecalis ATCC 29212, 1 µg/mL; in [4], 8 µg/mL; in [5], 8 µg/mL. Further, the MIC is 8 µg/mL in assay [6], greater than 32 µg/mL in the assay on P. aeruginosa ATCC 27853 and 4 µg/mL in assay [7].

As to `CC(C)(CN)SCc1cnccc1SC1=C(C(=O)O)N2C(=O)[C@@H](NC(=O)/C(=N\O)c3csc(N)n3)[C@H]2SC1` [Cmpd 19, (7R)-7-[(Z)-2-(aminothiazol-4-yl)-2-(hydroxyimino)acetamido]-3-[3-(2-amino-1,1-dimethylethylthiomethyl)pyrid-4-ylthio]-3-cephem-4-carboxylate, trifluoroacetic acid salt], the MIC is 2 µg/mL in the assay with E. faecium VanA(Van^R); 0.5 µg/mL in [1]; greater than 32 µg/mL in the assay on E. faecium A491(Amp^R); 0.5 µg/mL in the assay with E. faecalis VanB(Van^R); 1 µg/mL with E. faecium ATCC 35667; 0.5 µg/mL in [2]. Moreover, the MIC with S. aureus ATCC 29213 was 0.5 µg/mL; with E. coli ATCC 25992 it was 8 µg/mL; in assay [3] it was 8 µg/mL; in the assay on E. faecalis ATCC 29212, 1 µg/mL; in assay [4], 16 µg/mL; in [5] it was 8 µg/mL. Besides, the MIC in assay [6] is 8 µg/mL; with P. aeruginosa ATCC 27853 it was greater than 32 µg/mL; in [7], 8 µg/mL.

Take `NCCSc1cnccc1SC1=C(C(=O)O)N2C(=O)[C@@H](NC(=O)/C(=N\O)c3csc(N)n3)[C@H]2SC1` [Cmpd 20, (7R)-7-[(Z)-2-(aminothiazol-4-yl)-2-(hydroxyimino)acetamido]-3-(3-aminoethylthiopyrid-4-ylthio)-3-cephem-4-carboxylate, trifluoroacetic acid salt]: the MIC was 2 µg/mL in the assay with E. faecium VanA(Van^R); 0.5 µg/mL in assay [1]; greater than 32 µg/mL with E. faecium A491(Amp^R); 0.5 µg/mL in the assay with E. faecalis VanB(Van^R); 1 µg/mL in the assay on E. faecium ATCC 35667; 0.5 µg/mL in assay [2]. Also, the MIC in the assay with S. aureus ATCC 29213 was determined as 0.5 µg/mL; in the assay on E. coli ATCC 25992 it was 4 µg/mL; in assay [3] it was 2 µg/mL; in the assay on E. faecalis ATCC 29212, 1 µg/mL; in assay [4], 4 µg/mL; in assay [5], 4 µg/mL. The MIC in [6] is 4 µg/mL; in the assay on P. aeruginosa ATCC 27853 it was greater than 32 µg/mL; in assay [7], 2 µg/mL.

As for `NCCSCc1cnccc1SC1=C(C(=O)O)N2C(=O)[C@@H](NC(=O)/C(=N\OCCF)c3csc(N)n3)[C@H]2SC1` [Cmpd 23, (7R)-7-[(Z)-2-(aminothiazol-4-yl)-2-(2-fluoroethoxyimino)acetamido]-3-(3-aminoethylthiomethylpyrid-4-ylthio)-3-cephem-4-carboxylate, trifluoroacetic acid salt], the MIC in the assay on E. faecium VanA(Van^R) is 4 µg/mL; in assay [1], 0.5 µg/mL; in the assay on E. faecium A491(Amp^R), greater than 32 µg/mL; in the assay with E. faecalis VanB(Van^R) it was 1 µg/mL; with E. faecium ATCC 35667, 2 µg/mL; in assay [2] it was 0.5 µg/mL. In addition, the MIC in the assay on S. aureus ATCC 29213 is 1 µg/mL; with E. coli ATCC 25992 it was 2 µg/mL; in assay [3], 4 µg/mL; in the assay with E. faecalis ATCC 29212 it was 0.5 µg/mL; in [4] it was 4 µg/mL; in assay [5] it was 4 µg/mL. For the same molecule, the results for the MIC (in assay [6]; in the assay with P. aeruginosa ATCC 27853; in assay [7]) were 4 µg/mL, greater than 32 µg/mL and 2 µg/mL, respectively.

On to `NCC(=O)NCCSCc1cnccc1SC1=C(C(=O)O)N2C(=O)[C@@H](NC(=O)/C(=N\O)c3csc(N)n3)[C@H]2SC1` [Cmpd 24, (7R)-7-[(Z)-2-(aminothiazol-4-yl)-2-(hydroxyimino)acetamido]-3-[3-(glycyl)aminoethylthiomethylpyrid-4-ylthio]-3-cephem-4-carboxylate, trifluoroacetic acid salt], for which the MIC in the assay with E. faecium VanA(Van^R) is 4 µg/mL; in [1], 1 µg/mL; with E. faecium A491(Amp^R), greater than 32 µg/mL; in the assay on E. faecalis VanB(Van^R) it was 0.5 µg/mL; in the assay with E. faecium ATCC 35667, 2 µg/mL; in assay [2], 1 µg/mL. Besides, the MIC came to 1 µg/mL in the assay with S. aureus ATCC 29213; 8 µg/mL in the assay with E. coli ATCC 25992; 4 µg/mL in [3]; 0.25 µg/mL in the assay on E. faecalis ATCC 29212; 8 µg/mL in assay [4]; 4 µg/mL in [5]. Moreover, the MIC in assay [6] was 8 µg/mL; in the assay on P. aeruginosa ATCC 27853, greater than 32 µg/mL; in [7], 8 µg/mL.

Consider `N=CNCCSCc1cnccc1SC1=C(C(=O)O)N2C(=O)[C@@H](NC(=O)/C(=N\O)c3nc(N)sc3Cl)[C@H]2SC1` [Cmpd 31, (7R)-7-[(Z)-2-(2-amino-5-chlorothiazol-4-yl)-2-(hydroxyimino)acetamido]-3-(3-(N-formamidinoyl)aminoethylthiomethylpyrid-4-ylthio)-3-cephem-4-carboxylate, trifluoroacetic acid salt], for which the MIC amounted to 1 µg/mL with E. faecium VanA(Van^R); 0.25 µg/mL in assay [1]; 8 µg/mL with E. faecium A491(Amp^R); 0.25 µg/mL with E. faecalis VanB(Van^R); 0.5 µg/mL in the assay on E. faecium ATCC 35667; 0.25 µg/mL in assay [2]. The MIC amounted to 0.25 µg/mL with S. aureus ATCC 29213; 8 µg/mL in the assay with E. coli ATCC 25992; 2 µg/mL in assay [3]; 0.5 µg/mL with E. faecalis ATCC 29212; 4 µg/mL in [4]; 2 µg/mL in assay [5]. Moreover, the MIC in assay [6] was 2 µg/mL; in the assay on P. aeruginosa ATCC 27853, greater than 32 µg/mL; in assay [7], 2 µg/mL.

Consider `CC(N)CSCc1cnccc1SC1=C(C(=O)O)N2C(=O)[C@@H](NC(=O)/C(=N\O)c3nc(N)sc3Cl)[C@H]2SC1` (stereo partly drawn) [Cmpd 36, (7R)-7-[(Z)-2-(2-amino-5-chlorothiazol-4-yl)-2-(hydroxyimino)acetamido]-3-(3-(2-aminoprop-1-ylthiomethyl)pyrid-4-ylthio)-3-cephem-4-carboxylate, trifluoroacetic acid salt], for which the MIC with E. faecium VanA(Van^R) is 1 µg/mL; in assay [1], 0.25 µg/mL; in the assay with E. faecium A491(Amp^R), 8 µg/mL; in the assay on E. faecalis VanB(Van^R) it was 0.13 µg/mL; in the assay on E. faecium ATCC 35667, 0.5 µg/mL; in assay [2] it was 0.25 µg/mL. The MIC with S. aureus ATCC 29213 came to 0.5 µg/mL; with E. coli ATCC 25992 it was 16 µg/mL; in assay [3], 1 µg/mL; in the assay with E. faecalis ATCC 29212 it was 0.25 µg/mL; in [4], 2 µg/mL; in [5] it was 1 µg/mL. Further, the MIC in [6] is 2 µg/mL; in the assay on P. aeruginosa ATCC 27853, greater than 32 µg/mL; in [7], 1 µg/mL.
